Converted amounts (≈) assume the structure as drawn. The source made the active and inactive calls. The calls are words filed in the database; no cut-off is given here.
What was measured:
Myeloperoxidase [1] = target: T1, Myeloperoxidase (Homo sapiens, UniProt P05164); assay: Inhibition of myeloperoxidase (unknown origin)
T1 sequence (P05164 whole entry): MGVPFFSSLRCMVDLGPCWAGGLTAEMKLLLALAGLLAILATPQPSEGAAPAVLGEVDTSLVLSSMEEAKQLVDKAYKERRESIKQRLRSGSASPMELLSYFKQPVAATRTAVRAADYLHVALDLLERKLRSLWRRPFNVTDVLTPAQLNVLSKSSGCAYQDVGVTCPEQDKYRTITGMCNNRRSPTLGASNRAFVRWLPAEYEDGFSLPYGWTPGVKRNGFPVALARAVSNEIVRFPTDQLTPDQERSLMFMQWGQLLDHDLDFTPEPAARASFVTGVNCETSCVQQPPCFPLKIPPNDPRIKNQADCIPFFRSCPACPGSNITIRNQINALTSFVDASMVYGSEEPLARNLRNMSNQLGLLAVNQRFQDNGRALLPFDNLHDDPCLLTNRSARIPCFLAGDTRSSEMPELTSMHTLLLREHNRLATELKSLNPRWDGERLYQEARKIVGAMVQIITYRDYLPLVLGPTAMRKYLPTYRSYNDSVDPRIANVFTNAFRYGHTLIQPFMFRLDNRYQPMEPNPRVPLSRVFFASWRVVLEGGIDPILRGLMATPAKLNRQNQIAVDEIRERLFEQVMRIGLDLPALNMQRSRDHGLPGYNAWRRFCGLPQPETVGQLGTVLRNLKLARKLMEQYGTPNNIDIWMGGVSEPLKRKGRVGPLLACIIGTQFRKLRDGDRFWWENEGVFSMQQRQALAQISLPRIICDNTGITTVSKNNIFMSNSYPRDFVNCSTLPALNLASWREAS

Myeloperoxidase [2] = target: T1, Myeloperoxidase; assay: Inhibition of human plasma myeloperoxidase
[3] = target: T2, Myeloperoxidase (Homo sapiens) (UniProt P05164); assay: Inhibition of myeloperoxidase (unknown origin) assessed as ratio of Kinact to Ki
T2 sequence (whole entry): T1 sequence (P05164 whole entry)

[4] = target: T2, Myeloperoxidase (Homo sapiens); assay: Inhibition of myeloperoxidase (unknown origin) assessed as partition ratio by Amplex red based fluorescence assay
Thyroid peroxidase = target: T3, Thyroid peroxidase (Homo sapiens, UniProt P07202); assay: Inhibition of thyroid peroxidase (unknown origin)
T3 sequence (P07202 whole entry): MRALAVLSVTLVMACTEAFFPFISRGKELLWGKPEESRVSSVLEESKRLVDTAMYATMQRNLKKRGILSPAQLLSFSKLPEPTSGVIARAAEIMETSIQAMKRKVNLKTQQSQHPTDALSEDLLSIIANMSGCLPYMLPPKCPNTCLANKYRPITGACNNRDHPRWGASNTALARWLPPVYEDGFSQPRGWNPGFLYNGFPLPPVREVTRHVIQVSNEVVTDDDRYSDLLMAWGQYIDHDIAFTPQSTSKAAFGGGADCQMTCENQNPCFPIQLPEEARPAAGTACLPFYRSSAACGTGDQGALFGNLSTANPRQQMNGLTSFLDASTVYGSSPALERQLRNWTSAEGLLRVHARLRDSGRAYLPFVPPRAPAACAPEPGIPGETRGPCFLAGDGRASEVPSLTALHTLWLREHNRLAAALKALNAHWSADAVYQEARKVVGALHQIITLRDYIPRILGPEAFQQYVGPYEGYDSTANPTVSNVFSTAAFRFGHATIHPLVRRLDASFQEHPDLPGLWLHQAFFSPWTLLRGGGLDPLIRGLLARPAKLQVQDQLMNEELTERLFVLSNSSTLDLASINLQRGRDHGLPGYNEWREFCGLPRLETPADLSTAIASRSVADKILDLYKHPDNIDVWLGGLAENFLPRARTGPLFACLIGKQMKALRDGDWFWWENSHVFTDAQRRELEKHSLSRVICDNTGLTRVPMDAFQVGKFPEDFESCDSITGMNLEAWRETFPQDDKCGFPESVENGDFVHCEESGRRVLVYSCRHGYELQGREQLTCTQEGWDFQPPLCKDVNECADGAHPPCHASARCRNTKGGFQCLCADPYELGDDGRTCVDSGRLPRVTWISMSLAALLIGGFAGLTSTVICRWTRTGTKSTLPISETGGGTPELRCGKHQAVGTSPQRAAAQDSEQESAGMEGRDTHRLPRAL

[5] = Solubility of the compound at pH 6.8; type: physicochemical; details: buffer
[6] = target: Voltage-gated inwardly rectifying potassium channel KCNH2 (Homo sapiens, UniProt Q12809); assay: Inhibition of human ERG
Cytochrome P450 3A4 = Cytochrome P450 3A4 (Homo sapiens, UniProt P08684); assay: Inhibition of CYP3A4 (unknown origin); type: ADME
Cytochrome P450 2D6 = Cytochrome P450 2D6 (Homo sapiens, UniProt P10635); assay: Inhibition of CYP2D6 (unknown origin); type: ADME
[7] = Cmax in mouse at 10 mg/kg, po; type: ADME, organism-based; design: dose 10 mg/kg, route oral; details: in vivo
[8] = Plasma clearance in mouse at 1 mg/kg, iv; type: ADME, organism-based
[9] = AUCinfinity in mouse at 10 mg/kg, po; type: ADME, organism-based; design: dose 10 mg/kg, route oral, time infinity; details: in vivo
[10] = Oral bioavailability in mouse at 10 mg/kg; type: ADME, organism-based; details: in vivo
[11] = Plasma protein binding in human; type: ADME, cell-free; details: read-out: PPB (converted)
[12] = Volume of distribution at steady state in mouse at 0.5 mg/kg, iv; type: ADME, organism-based; details: in vivo, read-out: Vdss
[13] = Elimination half life in mouse at 0.5 mg/kg, iv; type: ADME, organism-based; details: in vivo, read-out: beta t1/2 (converted)
[14] = Plasma protein binding in mouse at 0.5 mg/kg, iv or 10 mg/kg, po; type: ADME, organism-based; details: read-out: PPB (converted)
[15] = target: T2, Myeloperoxidase (Homo sapiens); assay: Irreversible inhibition of myeloperoxidase (unknown origin) at 1000 fold dilution
[16] = target: T4, Thyroid peroxidase (Homo sapiens) (UniProt P07202); assay: Irreversible inhibition of thyroid peroxidase (unknown origin) at 1000 fold dilution
T4 sequence (whole entry): T3 sequence (P07202 whole entry)

Armoracia rusticana = assay: Irreversible inhibition of horseradish peroxidase at 1000 fold dilution
[17] = target: T2, Myeloperoxidase (Homo sapiens); assay: Irreversible inhibition of human myeloperoxidase assessed as residual activity using H2O2 as substrate at 200 fold dilution and measured after 72 hrs by dialysis method
[18] = Unbound Cmax in mouse at 10 mg/kg, po; type: ADME, organism-based; details: in vivo
[19] = Plasma protein binding in mouse at 1mg/kg, iv or 10 mg/kg, po; type: ADME, organism-based; details: read-out: PPB (converted)
[20] = Volume of distribution at steady state in mouse at 1 mg/kg, iv; type: ADME, organism-based; details: in vivo, read-out: Vdss
[21] = Elimination half life in mouse at 1 mg/kg, iv; type: ADME, organism-based; details: in vivo, read-out: beta t1/2 (converted)
Mus musculus = assay: Antiinflammatory activity against mouse model of thioglycolate/zymosan A induced peritonitis assessed as decrease in myeloperoxidase activity at 90 mg/kg, po pretreated for 4 hrs followed by zymosan A stimulation by ELISA; type: functional; design: scale not given: the % may be the effect or the level left
[22] = target: T2, Myeloperoxidase (Homo sapiens); assay: Irreversible inhibition of human myeloperoxidase using H2O2 as substrate at 200 fold dilution and measured after 72 hrs by dialysis method

Chain of Cytochrome P450 2D6 (P10635 whole entry): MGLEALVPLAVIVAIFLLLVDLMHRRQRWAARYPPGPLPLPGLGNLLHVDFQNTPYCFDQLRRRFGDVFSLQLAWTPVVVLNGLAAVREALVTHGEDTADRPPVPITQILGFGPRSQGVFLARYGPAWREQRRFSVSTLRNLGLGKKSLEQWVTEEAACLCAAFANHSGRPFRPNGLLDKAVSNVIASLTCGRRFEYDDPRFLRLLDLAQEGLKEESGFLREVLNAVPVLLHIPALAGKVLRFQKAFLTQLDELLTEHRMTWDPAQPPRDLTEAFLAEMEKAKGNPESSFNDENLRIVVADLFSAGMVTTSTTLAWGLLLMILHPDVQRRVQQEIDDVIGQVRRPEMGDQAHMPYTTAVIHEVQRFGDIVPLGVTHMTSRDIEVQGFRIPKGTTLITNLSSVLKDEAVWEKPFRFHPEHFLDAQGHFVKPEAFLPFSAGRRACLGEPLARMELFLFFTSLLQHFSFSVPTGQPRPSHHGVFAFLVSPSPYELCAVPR
Chain of Voltage-gated inwardly rectifying potassium channel KCNH2 (Q12809 whole entry): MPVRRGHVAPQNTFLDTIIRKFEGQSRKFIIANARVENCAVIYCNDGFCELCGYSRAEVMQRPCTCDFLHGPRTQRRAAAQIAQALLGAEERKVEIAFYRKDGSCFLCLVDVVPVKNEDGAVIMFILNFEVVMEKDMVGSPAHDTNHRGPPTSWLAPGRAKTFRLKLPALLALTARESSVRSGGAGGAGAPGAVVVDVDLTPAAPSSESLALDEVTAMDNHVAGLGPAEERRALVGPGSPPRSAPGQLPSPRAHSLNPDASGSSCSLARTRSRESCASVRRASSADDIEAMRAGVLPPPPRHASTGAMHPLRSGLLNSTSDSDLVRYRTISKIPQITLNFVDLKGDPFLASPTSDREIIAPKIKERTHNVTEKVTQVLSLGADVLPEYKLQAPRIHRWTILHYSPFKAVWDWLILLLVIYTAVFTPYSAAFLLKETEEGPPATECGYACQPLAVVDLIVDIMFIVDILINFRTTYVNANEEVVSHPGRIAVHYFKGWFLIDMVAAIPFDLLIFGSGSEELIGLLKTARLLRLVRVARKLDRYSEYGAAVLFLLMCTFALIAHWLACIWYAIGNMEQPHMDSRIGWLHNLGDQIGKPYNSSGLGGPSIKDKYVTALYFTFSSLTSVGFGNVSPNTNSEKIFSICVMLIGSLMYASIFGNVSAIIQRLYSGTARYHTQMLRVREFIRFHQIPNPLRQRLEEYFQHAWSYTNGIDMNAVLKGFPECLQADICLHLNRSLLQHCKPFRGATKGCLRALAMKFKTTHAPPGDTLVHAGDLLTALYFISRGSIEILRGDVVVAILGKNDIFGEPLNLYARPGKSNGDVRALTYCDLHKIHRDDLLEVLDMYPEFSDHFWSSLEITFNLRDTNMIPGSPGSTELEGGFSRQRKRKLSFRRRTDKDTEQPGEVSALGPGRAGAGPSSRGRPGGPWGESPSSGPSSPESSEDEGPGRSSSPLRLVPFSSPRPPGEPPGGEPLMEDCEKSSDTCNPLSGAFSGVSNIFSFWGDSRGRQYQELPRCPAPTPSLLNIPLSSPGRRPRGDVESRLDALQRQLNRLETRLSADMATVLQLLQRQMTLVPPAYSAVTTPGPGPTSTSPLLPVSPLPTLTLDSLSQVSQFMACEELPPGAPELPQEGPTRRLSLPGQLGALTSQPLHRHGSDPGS
Chain of Cytochrome P450 3A4 (P08684 whole entry): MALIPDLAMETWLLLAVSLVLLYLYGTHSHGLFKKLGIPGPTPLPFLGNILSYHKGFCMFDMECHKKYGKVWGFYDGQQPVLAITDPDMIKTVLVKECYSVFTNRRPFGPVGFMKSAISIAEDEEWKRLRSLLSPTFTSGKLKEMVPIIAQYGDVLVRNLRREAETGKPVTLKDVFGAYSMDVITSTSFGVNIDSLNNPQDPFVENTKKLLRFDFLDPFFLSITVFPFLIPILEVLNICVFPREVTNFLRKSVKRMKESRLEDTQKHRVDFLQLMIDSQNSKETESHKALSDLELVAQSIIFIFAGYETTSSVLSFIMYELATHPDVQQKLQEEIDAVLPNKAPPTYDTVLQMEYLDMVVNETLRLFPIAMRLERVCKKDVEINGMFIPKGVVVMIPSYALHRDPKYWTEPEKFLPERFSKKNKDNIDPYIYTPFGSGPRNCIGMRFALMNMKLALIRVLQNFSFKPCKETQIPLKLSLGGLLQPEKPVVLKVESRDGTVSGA

Row | SMILES | IC50 (Myeloperoxidase [1]) [nM] | IC50 (Myeloperoxidase [2]) [nM] | Ratio [3] [M⁻¹ s⁻¹] | Ratio [4] | IC50 (Thyroid peroxidase) [nM] | solubility [5] [µM] | IC50 [6] [nM] | IC (Cytochrome P450 3A4) [µM] | IC (Cytochrome P450 2D6) [µM] | further results
1 | N[C@@H](c1ccc(-n2cc(-c3ccc4cc[nH]c4c3)c(C(F)(F)F)n2)cc1)C(F)(F)F | 420 | 18000 | 122000 | 17 | > 30000 | 21 (≈ 8.91 µg/mL) | > 30000 | 17 | 21 | –
2 | N[C@@H]1CC[C@@H](n2cc(-c3ccc4cc[nH]c4c3)c(C(F)(F)F)n2)C1 | 70 | 170 | 230000 | 3.1 | > 30000 | 587 (≈ 196 µg/mL) | 17000 | 34 | > 50 | Cmax [7]: 1990 nM; clearance [8]: 16.1 mL/min/kg; AUC(0-inf) [9]: 22.9 µM·h; bioavailability [10]: 40%; fraction unbound [11]: 0.034; Vd [12]: 2.1 L/kg; half-life [13]: 4.5 h; fraction unbound [14]: 0.027
3 | Nc1ncnc2c1c(-c1ccc3cc[nH]c3c1)cn2-c1ccc(OCCNCCO)cc1 | 220 | – | 23000 | 141 | 30000 | 46 (≈ 19.7 µg/mL) | 2800 | > 50 | > 50 | inhibition [15]: Active; inhibition [16]: inactive; inhibition (Armoracia rusticana): inactive; Activity [17]: > 95%
4 | NC(=O)Cn1cc(-c2ccc3cc[nH]c3c2)c(C(F)(F)F)n1 | 2000 | – | – | > 200 | > 30000 | – | – | – | – | –
5 | O=C(O)CCn1cc(-c2ccc3cc[nH]c3c2)c(C(F)(F)F)n1 | 5200 | – | – | > 200 | – | – | – | – | – | –
6 | NC[C@H]1C[C@H](n2cc(-c3ccc4cc[nH]c4c3)c(C(F)(F)F)n2)C1 | 170 | – | – | 6.7 | > 30000 | – | – | – | – | –
7 | NCCCCn1cc(-c2ccc3cc[nH]c3c2)c(C(F)(F)F)n1 | 330 | 900 | 61000 | 42 | > 30000 | 73 (≈ 23.5 µg/mL) | 1900 | > 50 | 43 | –
8 | NCc1ccc(-n2cc(-c3ccc4cc[nH]c4c3)c(C(F)(F)F)n2)cc1 | 30 | 360 | 430000 | 0.4 | > 30000 | 62 (≈ 22.1 µg/mL) | 4000 | 3.8 | 1.4 | –
9 | FC(F)(F)c1nn(-c2ccc(Cc3nc[nH]n3)cc2)cc1-c1ccc2cc[nH]c2c1 | 250 | 23000 | 106000 | 12 | 5900 | 11 (≈ 4.49 µg/mL) | > 30000 | 6.9 | 0.5 | –
10 | CN(C)Cc1ccc(-n2cc(-c3ccc4cc[nH]c4c3)c3c(Cl)ccnc32)cc1 | 120 | 2600 | 210000 | 3.7 | 5300 | 21 (≈ 8.42 µg/mL) | 1700 | 17 | 21 | fCmax [18]: 2 nM; fraction unbound [19]: 0.004; Cmax [7]: 502 nM; clearance [8]: 64.7 mL/min/kg; Vd [20]: 9.8 L/kg; half-life [21]: 2.6 h; AUC(0-inf) [9]: 2.49 µM·h; bioavailability [10]: 61%; Activity (Mus musculus): 50%; inhibition [22]: Active
11 | NC(=O)CCn1cc(-c2ccc3cc[nH]c3c2)c(C(F)(F)F)n1 | 4200 | – | – | > 200 | > 30000 | – | – | – | – | –

Reference: ChEMBL document CHEMBL4622882, “Discovery of a novel indole pharmacophore for the irreversible inhibition of myeloperoxidase (MPO)” (Bioorg Med Chem, 2020)
